This is an account of results in ChEMBL document CHEMBL1275261, “Nationwide investigation of extended-spectrum beta-lactamases, metallo-beta-lactamases, and extended-spectrum oxacillinases produced by ceftazidime-resistant Pseudomonas aeruginosa strains in France” (2010).

Converted amounts (≈) assume the structure as drawn.

Type in all cases: functional
For experiment [1], the system named is Pseudomonas aeruginosa. As to the kind of experiment: Antibacterial activity against OXA-10, PSE-1, VIM-2 and PER-1 producing Pseudomonas aeruginosa isolate P22 exhibiting PFGE F pattern by 2-fold agar dilution method.
Experiment [2] relates to Pseudomonas aeruginosa. As to the kind of experiment: Antibacterial activity against VEB-1a and OXA-10 producing Pseudomonas aeruginosa isolate P151 exhibiting PFGE I pattern by 2-fold agar dilution method.
Experiment [3] relates to Pseudomonas aeruginosa. As to the kind of experiment: Antibacterial activity against SHV-2a producing Pseudomonas aeruginosa isolate P60 exhibiting PFGE H pattern by 2-fold agar dilution method.
Experiment [4] deals with Pseudomonas aeruginosa. Briefly: Antibacterial activity against OXA-28 producing Pseudomonas aeruginosa isolate P174 exhibiting PFGE E pattern by 2-fold agar dilution method.
The subject of experiment [5] is Pseudomonas aeruginosa. As to the kind of experiment: Antibacterial activity against PER-1 producing Pseudomonas aeruginosa isolate P170 exhibiting PFGE G pattern by 2-fold agar dilution method.
In experiment [6] the test system is Pseudomonas aeruginosa. As to the kind of experiment: Antibacterial activity against IMP-18 producing Pseudomonas aeruginosa isolate P85 exhibiting PFGE K pattern by 2-fold agar dilution method.
The test system of experiment [7] is Pseudomonas aeruginosa. As to the kind of experiment: Antibacterial activity against OXA-19 producing Pseudomonas aeruginosa isolate P9 exhibiting PFGE A pattern by 2-fold agar dilution method.
For experiment [8], the system named is Pseudomonas aeruginosa. As to the kind of experiment: Antibacterial activity against SHV-2a producing Pseudomonas aeruginosa isolate P102 exhibiting PFGE H pattern by 2-fold agar dilution method.
Experiment [9] has as its system Pseudomonas aeruginosa. As to the kind of experiment: Antibacterial activity against VIM-2 producing Pseudomonas aeruginosa isolate P67 exhibiting PFGE J pattern by 2-fold agar dilution method.
In experiment [10] the test system is Pseudomonas aeruginosa. Briefly: Antibacterial activity against OXA-30, PSE-1, VIM-2 and PER-1 producing Pseudomonas aeruginosa isolate P19 exhibiting PFGE F pattern by 2-fold agar dilution method.
The subject of experiment [11] is Pseudomonas aeruginosa. Briefly: Antibacterial activity against OXA-2 and OXA-19 producing Pseudomonas aeruginosa isolate P66 exhibiting PFGE C pattern by 2-fold agar dilution method.
The test system of experiment [12] is Pseudomonas aeruginosa. As to the kind of experiment: Antibacterial activity against OXA-19 producing Pseudomonas aeruginosa isolate P122 exhibiting PFGE A pattern by 2-fold agar dilution method.
In experiment [13] the test system is Pseudomonas aeruginosa. Briefly: Antibacterial activity against OXA-19 producing Pseudomonas aeruginosa isolate P11 exhibiting PFGE A pattern by 2-fold agar dilution method.
Experiment [14] has as its system Pseudomonas aeruginosa. As to the kind of experiment: Antibacterial activity against OXA-19 producing Pseudomonas aeruginosa isolate P9 exhibiting PFGE A pattern by 2-fold agar dilution method in presence of 4 ug/ml Tazobactam.
In experiment [15] the test system is Pseudomonas aeruginosa. As to the kind of experiment: Antibacterial activity against VIM-2 producing Pseudomonas aeruginosa isolate P67 exhibiting PFGE J pattern by 2-fold agar dilution method in presence of 4 ug/ml Tazobactam.
Experiment [16] deals with Pseudomonas aeruginosa. Briefly: Antibacterial activity against OXA-30, PSE-1, VIM-2 and PER-1 producing Pseudomonas aeruginosa isolate P19 exhibiting PFGE F pattern by 2-fold agar dilution method in presence of 4 ug/ml Tazobactam.
For experiment [17], the system named is Pseudomonas aeruginosa. Briefly: Antibacterial activity against OXA-19 producing Pseudomonas aeruginosa isolate P122 exhibiting PFGE A pattern by 2-fold agar dilution method in presence of 4 ug/ml Tazobactam.
The subject of experiment [18] is Pseudomonas aeruginosa. Briefly: Antibacterial activity against OXA-19 producing Pseudomonas aeruginosa isolate P11 exhibiting PFGE A pattern by 2-fold agar dilution method in presence of 4 ug/ml Tazobactam.
Experiment [19] relates to Pseudomonas aeruginosa. Briefly: Antibacterial activity against PER-1 producing Pseudomonas aeruginosa isolate P170 exhibiting PFGE G pattern by 2-fold agar dilution method in presence of 4 ug/ml Tazobactam.
Experiment [20] concerns Pseudomonas aeruginosa. Briefly: Antibacterial activity against OXA-28 producing Pseudomonas aeruginosa isolate P174 exhibiting PFGE E pattern by 2-fold agar dilution method in presence of 4 ug/ml Tazobactam.
For experiment [21], the system named is Pseudomonas aeruginosa. As to the kind of experiment: Antibacterial activity against SHV-2a producing Pseudomonas aeruginosa isolate P102 exhibiting PFGE H pattern by 2-fold agar dilution method in presence of 4 ug/ml Tazobactam.
Experiment [22] relates to Pseudomonas aeruginosa. Briefly: Antibacterial activity against VEB-1a and OXA-10 producing Pseudomonas aeruginosa isolate P151 exhibiting PFGE I pattern by 2-fold agar dilution method in presence of 4 ug/ml Tazobactam.
The test system of experiment [23] is Pseudomonas aeruginosa. As to the kind of experiment: Antibacterial activity against SHV-2a producing Pseudomonas aeruginosa isolate P60 exhibiting PFGE H pattern by 2-fold agar dilution method in presence of 4 ug/ml Tazobactam.
In experiment [24] the test system is Pseudomonas aeruginosa. Briefly: Antibacterial activity against IMP-18 producing Pseudomonas aeruginosa isolate P85 exhibiting PFGE K pattern by 2-fold agar dilution method in presence of 4 ug/ml Tazobactam.
Experiment [25] relates to Pseudomonas aeruginosa. Briefly: Antibacterial activity against OXA-10, PSE-1, VIM-2 and PER-1 producing Pseudomonas aeruginosa isolate P22 exhibiting PFGE F pattern by 2-fold agar dilution method in presence of 4 ug/ml Tazobactam.
Experiment [26] has as its system Pseudomonas aeruginosa. As to the kind of experiment: Antibacterial activity against OXA-2 and OXA-19 producing Pseudomonas aeruginosa isolate P66 exhibiting PFGE C pattern by 2-fold agar dilution method in presence of 4 ug/ml Tazobactam.

With `CO/N=C(\C(=O)N[C@@H]1C(=O)N2C(C(=O)[O-])=C(C[N+]3(C)CCCC3)CS[C@H]12)c1csc(N)n1`, the MIC is 128 µg/mL (≈ 266 µM) against Pseudomonas aeruginosa [1]; > 512 µg/mL in the experiment with Pseudomonas aeruginosa [2]; 64 µg/mL (≈ 133 µM) with Pseudomonas aeruginosa [3]; 32 µg/mL (≈ 66.6 µM) in the experiment on Pseudomonas aeruginosa [4]; 64 µg/mL (≈ 133 µM) against Pseudomonas aeruginosa [5]; 256 µg/mL (≈ 533 µM) against Pseudomonas aeruginosa [6]. Besides, the MIC was found to be 64 µg/mL (≈ 133 µM) in the experiment on Pseudomonas aeruginosa [7]; 64 µg/mL (≈ 133 µM) against Pseudomonas aeruginosa [8]; 64 µg/mL (≈ 133 µM) against Pseudomonas aeruginosa [9]; 128 µg/mL (≈ 266 µM) with Pseudomonas aeruginosa [10]; 16 µg/mL (≈ 33.3 µM) in the experiment with Pseudomonas aeruginosa [11].

As to `NCC[C@H](O)C(=O)N[C@@H]1C[C@H](N)[C@@H](O[C@H]2O[C@H](CN)[C@@H](O)[C@H](O)[C@H]2O)[C@H](O)[C@H]1O[C@H]1O[C@H](CO)[C@@H](O)[C@H](N)[C@H]1O` [AMIKACIN], the MIC against Pseudomonas aeruginosa [1] stood at 64 µg/mL (≈ 109 µM); in the experiment on Pseudomonas aeruginosa [2], 128 µg/mL (≈ 219 µM); against Pseudomonas aeruginosa [3], 32 µg/mL (≈ 54.6 µM); in the experiment on Pseudomonas aeruginosa [4] it was 16 µg/mL (≈ 27.3 µM); in the experiment with Pseudomonas aeruginosa [5], 32 µg/mL (≈ 54.6 µM); against Pseudomonas aeruginosa [12], 8 µg/mL (≈ 13.7 µM). Moreover, the MIC is > 512 µg/mL with Pseudomonas aeruginosa [6]; 16 µg/mL (≈ 27.3 µM) in the experiment with Pseudomonas aeruginosa [7]; 128 µg/mL (≈ 219 µM) in the experiment with Pseudomonas aeruginosa [8]; 32 µg/mL (≈ 54.6 µM) in the experiment with Pseudomonas aeruginosa [9]; 8 µg/mL (≈ 13.7 µM) in the experiment with Pseudomonas aeruginosa [13]; 64 µg/mL (≈ 109 µM) against Pseudomonas aeruginosa [10]. Besides, inhibition of growth against Pseudomonas aeruginosa [11] (MIC) required 128 µg/mL (≈ 219 µM).

`C[C@H]1[C@H](NC(=O)/C(=N\OC(C)(C)C(=O)O)c2csc(N)n2)C(=O)N1S(=O)(=O)O` [AZTREONAM]: the minimum inhibitory concentration (MIC) in the experiment on Pseudomonas aeruginosa [1] was 256 µg/mL (≈ 588 µM); in the experiment on Pseudomonas aeruginosa [2] it was > 512 µg/mL; with Pseudomonas aeruginosa [3], 32 µg/mL (≈ 73.5 µM); with Pseudomonas aeruginosa [4] it was 32 µg/mL (≈ 73.5 µM); with Pseudomonas aeruginosa [5], 128 µg/mL (≈ 294 µM); against Pseudomonas aeruginosa [6] it was 16 µg/mL (≈ 36.7 µM). The MIC against Pseudomonas aeruginosa [7] turned out to be 16 µg/mL (≈ 36.7 µM); against Pseudomonas aeruginosa [8], 32 µg/mL (≈ 73.5 µM); with Pseudomonas aeruginosa [9], 32 µg/mL (≈ 73.5 µM); with Pseudomonas aeruginosa [10] it was 128 µg/mL (≈ 294 µM); in the experiment with Pseudomonas aeruginosa [11], 16 µg/mL (≈ 36.7 µM).

With `CC(C)(O/N=C(\C(=O)N[C@@H]1C(=O)N2C(C(=O)[O-])=C(C[n+]3ccccc3)CS[C@H]12)c1csc(N)n1)C(=O)O` [CEFTAZIDIME], the MIC is 256 µg/mL (≈ 468 µM) with Pseudomonas aeruginosa [1]; > 512 µg/mL against Pseudomonas aeruginosa [2]; 64 µg/mL (≈ 117 µM) in the experiment on Pseudomonas aeruginosa [3]; 256 µg/mL (≈ 468 µM) in the experiment with Pseudomonas aeruginosa [4]; 256 µg/mL (≈ 468 µM) in the experiment on Pseudomonas aeruginosa [5]; 256 µg/mL (≈ 468 µM) in the experiment on Pseudomonas aeruginosa [12]. The minimum inhibitory concentration (MIC) against Pseudomonas aeruginosa [6] is > 512 µg/mL; against Pseudomonas aeruginosa [7] it was 256 µg/mL (≈ 468 µM); in the experiment on Pseudomonas aeruginosa [8], 64 µg/mL (≈ 117 µM); in the experiment with Pseudomonas aeruginosa [9] it was 128 µg/mL (≈ 234 µM); against Pseudomonas aeruginosa [13], 256 µg/mL (≈ 468 µM); against Pseudomonas aeruginosa [10], 256 µg/mL (≈ 468 µM). Besides, it took 64 µg/mL (≈ 117 µM) to inhibit growth with Pseudomonas aeruginosa [11] (MIC).

For the compound `O=C(O)c1cn(C2CC2)c2cc(N3CCNCC3)c(F)cc2c1=O` [CIPROFLOXACIN], the minimal inhibitory concentration (MIC) in the experiment on Pseudomonas aeruginosa [2] turned out to be 512 µg/mL (≈ 1550 µM); in the experiment on Pseudomonas aeruginosa [3], 32 µg/mL (≈ 96.6 µM); in the experiment with Pseudomonas aeruginosa [4] it was 128 µg/mL (≈ 386 µM); against Pseudomonas aeruginosa [5], 64 µg/mL (≈ 193 µM); in the experiment with Pseudomonas aeruginosa [12], 64 µg/mL (≈ 193 µM); with Pseudomonas aeruginosa [6] it was 128 µg/mL (≈ 386 µM). The MIC was 64 µg/mL (≈ 193 µM) against Pseudomonas aeruginosa [7]; 32 µg/mL (≈ 96.6 µM) in the experiment with Pseudomonas aeruginosa [8]; 128 µg/mL (≈ 386 µM) with Pseudomonas aeruginosa [9]; 32 µg/mL (≈ 96.6 µM) in the experiment with Pseudomonas aeruginosa [13]; 128 µg/mL (≈ 386 µM) in the experiment with Pseudomonas aeruginosa [11].

Regarding `C[C@@H](O)[C@H]1C(=O)N2C(C(=O)O)=C(SCCNC=N)C[C@H]12` [IMIPENEM ANHYDROUS], the MIC against Pseudomonas aeruginosa [1] was 128 µg/mL (≈ 428 µM); against Pseudomonas aeruginosa [2] it was 32 µg/mL (≈ 107 µM); against Pseudomonas aeruginosa [3], 1 µg/mL (≈ 3.34 µM); against Pseudomonas aeruginosa [4], 4 µg/mL (≈ 13.4 µM); in the experiment with Pseudomonas aeruginosa [5], 4 µg/mL (≈ 13.4 µM); with Pseudomonas aeruginosa [12], 8 µg/mL (≈ 26.7 µM). Moreover, the MIC is 64 µg/mL (≈ 214 µM) against Pseudomonas aeruginosa [6]; 16 µg/mL (≈ 53.4 µM) against Pseudomonas aeruginosa [7]; 16 µg/mL (≈ 53.4 µM) in the experiment on Pseudomonas aeruginosa [8]; 512 µg/mL (≈ 1710 µM) in the experiment with Pseudomonas aeruginosa [9]; 8 µg/mL (≈ 26.7 µM) against Pseudomonas aeruginosa [13]; 128 µg/mL (≈ 428 µM) in the experiment on Pseudomonas aeruginosa [10]. The MIC against Pseudomonas aeruginosa [11] turned out to be 1 µg/mL (≈ 3.34 µM).

`CCN1CCN(C(=O)N[C@@H](C(=O)N[C@@H]2C(=O)N3[C@@H]2SC(C)(C)[C@@H]3C(=O)O)c2ccccc2)C(=O)C1=O` [PIPERACILLIN]: the MIC is 128 µg/mL in the experiment with Pseudomonas aeruginosa [14]; 32 µg/mL with Pseudomonas aeruginosa [15]; 256 µg/mL with Pseudomonas aeruginosa [16]; 64 µg/mL in the experiment with Pseudomonas aeruginosa [17]; 64 µg/mL in the experiment with Pseudomonas aeruginosa [18]; 128 µg/mL in the experiment on Pseudomonas aeruginosa [19]. Further, the MIC in the experiment on Pseudomonas aeruginosa [20] came to 128 µg/mL; in the experiment on Pseudomonas aeruginosa [21], 128 µg/mL; with Pseudomonas aeruginosa [22], 256 µg/mL; in the experiment on Pseudomonas aeruginosa [23], 128 µg/mL; in the experiment with Pseudomonas aeruginosa [24], 128 µg/mL; in the experiment with Pseudomonas aeruginosa [25] it was 256 µg/mL. The MIC in the experiment on Pseudomonas aeruginosa [26] is 32 µg/mL.

On to `CC1(C)S[C@@H]2[C@H](NC(=O)[C@H](C(=O)O)c3ccsc3)C(=O)N2[C@H]1C(=O)O` [TICARCILLIN], for which the minimal inhibitory concentration (MIC) with Pseudomonas aeruginosa [1] was > 512 µg/mL; with Pseudomonas aeruginosa [2] it was > 512 µg/mL; against Pseudomonas aeruginosa [3], > 512 µg/mL; with Pseudomonas aeruginosa [4], 128 µg/mL (≈ 333 µM); against Pseudomonas aeruginosa [5] it was 512 µg/mL (≈ 1330 µM); against Pseudomonas aeruginosa [12], 256 µg/mL (≈ 666 µM). Moreover, the minimum inhibitory concentration (MIC) is > 512 µg/mL against Pseudomonas aeruginosa [6]; 512 µg/mL (≈ 1330 µM) with Pseudomonas aeruginosa [7]; > 512 µg/mL in the experiment on Pseudomonas aeruginosa [8]; > 512 µg/mL against Pseudomonas aeruginosa [9]; 256 µg/mL (≈ 666 µM) in the experiment on Pseudomonas aeruginosa [13]; > 512 µg/mL in the experiment with Pseudomonas aeruginosa [10]. Also, the lowest concentration to inhibit growth with Pseudomonas aeruginosa [11] (MIC) was 512 µg/mL (≈ 1330 µM).
